# Data published in patent publication US20130023504A1, “Modulation of Prostaglandin/Cyclooxygenase Metabolic Pathways” (HUNTER-FLEMING LIMITED, priority 2006, published 2013).
# Tested on: human peripheral blood mononuclear cells
# Test: Prostaglandin (PGD2, PGE2, 15d-PGJ2) production by human peripheral blood mononuclear cells with/without TNF-α, EIA (Example 2)
# Type: cell-based
# Procedure: Mononuclear cells (monocytes and lymphocytes) were prepared by subjecting 48 ml of whole human blood to Ficoll/hypaque density centrifugation. Blood was layered on top of the ficoll (density=1.077 g/ml) and centrifuged at 400 g for 1 hour (22° C.), after which cells at the interphase were removed by pipette and transferred to fresh tubes. Tubes were filled with RPMI 1640 culture medium (2 volumes) thoroughly mixed and then centrifuged at 400 g for 5 minutes (22° C.). The supernatant was discarded and the cell pellet was re-suspended in RPMI 1640 culture medium and the volume adjusted to give the appropriate number of cells per incubation as indicated in the results section below. Cells were incubated in sterile plastic 1.5 ml tubes in a final volume of 1 ml RPMI 1640 medium for 18 hours at 37° C., 5% CO2 in air and 100% humidity. 7β-OH-EPIA was then added and cells incubated for a further hour at 37° C. before adding recombinant human Tumour Necrosis Factor-α (TNF-α) and incubations continued for a further 3 hours. 7β-OH-EPIA was prepared in dimethyl sulphoxide (DMSO), all remaining agents were prepared in RPMI 1640 medium. The requisite controls contained either medium or the same concentration of DMSO which was always <0.1% v/v. Incubations were terminated by centrifuging tubes at 11,000 g for 30 seconds at 22° C. and transferring the supernatants to fresh 1.5 ml tubes. Samples were then either processed immediately for PGD2 estimation as described below or stored at −20° C. prior to PGE2 or 15d-PGJ2 measurement.
# Prostaglandin production by human monocytic cells in response to 7β-OH-EPIA in either the absence or presence of stimulation with TNF-α was determined by measuring the extracellular levels of eicosanoid using commercially available EIA kits.
# PGD2 cannot be assayed directly from cell supernatants because it is chemically unstable and rapidly degrades to a number of J series prostaglandins including, PGJ2, Δ^12-PGJ2, and 15-deoxy-Δ^12,14-PGJ2. In order to circumvent this problem, unstable PGD2 was chemically treated to give a stable derivative, in this case prostaglandin D2-Methoxamine (PGD2-MOX) which was be stored for subsequent analysis. Immediately following termination of incubations, 100 μl of sample supernatant was added to 1.5 ml tubes containing 100 μl of a Methyl Oximating Reagent (methoxy)amine hydrochloride (MOX-HCl) and sodium acetate dissolved in a 10:90 v/v, ethanol/water solution. Tubes were then placed in a water bath and the reaction allowed to proceed for 30 minutes at 60° C. At the end of this period samples were stored at −80° C. Levels of PGD2 were subsequently estimated using Cayman Chemical's Prostaglandin D2-MOX EIA Kit (Cat. No. 512011).
# Extracellular levels of PGE2 were estimated using R & D Systems' Parameter PGE2 EIA Kit according to the manufacturer's instructions for the high sensitivity protocol.
# Extracellular levels of 15d-PGJ2 were estimated using Assay Designs' Correlate-EIA Prostaglandin 15-deoxy-Δ^12,14-prostaglandin J2 EIA Kit (Cat. No. 900-023) according to the manufacturer's instructions.
# Results are expressed as the mean±s.d. for n=3 incubations. An unpaired Students t-Test was used to determine the probability (P) that two sets of data were different from each other. The difference was considered to be significant when P<0.05. Statistical calculations were carried out on an Apple Macintosh computer using the software package Statview, from Abacus Concepts Inc.
compound,measurement,setting,value
"CC12CCC3C(C1CCC2=O)[C@@H](O)C[C@H]1C[C@@H](O)CCC31C (stereo partly drawn) [Compound 7β-OH-EPIA, 7β-hydroxy-EPIAndrosterone]",effect on TNF-α-induced PGD2 biosynthesis,"0.1 nM-100 nM, TNF-α (0.5 μg/ml)",no effect
same,increase in 15d-PGJ2 production,"0.1 nM-1000 nM, in the presence of TNF-α, vs respective control",2-2.5 fold
same,increase in 15d-PGJ2 levels,"0.1 nM-1000 nM, without TNF-α, vs DMSO controls",9-12 fold
same,15d-PGJ2 levels in cell supernatants,"0.1 nM, 4 hours, without TNF-α",506 ± 101 pg/mL
same,15d-PGJ2 levels in cell supernatants,"0.1 nM, TNF-α (10 ng/ml)",348 ± 48 pg/mL
same,PGE2 levels compared to DMSO controls,"1 nM-1000 nM, 4 hours, without TNF-α",not statistically significantly different
same,15d-PGJ2 levels in cell supernatants,"1 nM, 4 hours, without TNF-α",539 ± 51 pg/mL
same,15d-PGJ2 levels in cell supernatants,"1 nM, TNF-α (10 ng/ml)",334 ± 24 pg/mL
same,PGE2 levels in cell supernatants,"1 nM, TNF-α (10 ng/ml)",75 ± 25 pg/mL
same,15d-PGJ2 levels in cell supernatants,"10 nM, 4 hours, without TNF-α",520 ± 45 pg/mL
same,15d-PGJ2 levels in cell supernatants,"10 nM, TNF-α (10 ng/ml)",356 ± 85 pg/mL
same,PGE2 levels in cell supernatants,"10 nM, TNF-α (10 ng/ml)",82 ± 23 pg/mL
same,15d-PGJ2 levels in cell supernatants,"100 nM, 4 hours, without TNF-α",450 ± 133 pg/mL
same,PGD2 levels in cell supernatants,"100 nM, 4 hours, without TNF-α",102 ± 24 pg/mL
same,15d-PGJ2 levels in cell supernatants,"100 nM, TNF-α (10 ng/ml)",406 ± 30 pg/mL
same,PGE2 levels in cell supernatants,"100 nM, TNF-α (10 ng/ml)",74 ± 12 pg/mL
same,15d-PGJ2 levels in cell supernatants,"1000 nM, 4 hours, without TNF-α",590 ± 84 pg/mL
same,15d-PGJ2 levels in cell supernatants,"1000 nM, TNF-α (10 ng/ml)",318 ± 100 pg/mL
same,effect on TNF-α-induced PGE2 production,"1000 nM, TNF-α (10 ng/ml)",no effect
same,PGD2 levels in cell supernatants,"1000 nM, TNF-α (0.5 μg/ml)",164 ± 31 pg/mL
